Reference: patent publication US9902736B2, “1-oxo/acylation-14-acylated oridonin derivative, preparation method therefor and application thereof” (HANGZHOU BENSHENG PHARMACEUTICAL CO., LTD., priority 2012, dated 2018)
Values after ≈ are worked out from the molar mass of the structure shown.

Legend:
K562/ADR = test: Leukemia cell growth inhibition, MTT, 72 h; format: cell-based; conditions: Homo sapiens
Procedure, shortened: (§1)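 MTT read-out of viable cell concentration after 72 hours of exposure at 37° C under 5% CO2. Compounds were dosed at several concentrations one day after plating 6000 cells per well.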

Kasumi-1 = test: Leukemia cell growth inhibition, MTT, 72 h; format: cell-based; conditions: Homo sapiens
Procedure, shortened: as §1

H9 = test: Leukemia cell growth inhibition, MTT, 72 h; format: cell-based, human; conditions: Homo sapiens, H9; 72 h, MTT
Procedure, shortened: as §1

Jurkat = test: Leukemia cell growth inhibition, MTT, 72 h; format: cell-based, human; conditions: Homo sapiens, Jurkat; 72 h, MTT
Procedure, shortened: as §1

NB4 = test: Leukemia cell growth inhibition, MTT, 72 h; format: cell-based, human; conditions: Homo sapiens, NB-4; 72 h, MTT
Procedure, shortened: as §1

RPMI 8226 = test: Multiple myeloma cell growth inhibition, MTT, 72 h; format: cell-based; conditions: Homo sapiens
Procedure, shortened: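 Growth inhibition by MTT after 72 h drug exposure (37 °C, 5% CO2) over a concentration range of oridonin derivatives. RPMI 8226 cells plated at 6000 per well and dosed the following day.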

CNE = test: Solid tumor cell growth inhibition, MTT, 72 h; format: cell-based, human; conditions: Homo sapiens, CNE; 72 h, MTT
Procedure, shortened: (§2)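 Viable cell concentration served as the readout. Cells (6000 per well) grown in DMEM High Glucose containing 10% FBS received the derivatives at several concentrations following an initial day of culture at 37° C, 5% CO2.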

Hela = test: Solid tumor cell growth inhibition, MTT, 72 h; format: cell-based, human; conditions: Homo sapiens, HeLa; 72 h, MTT
Procedure, shortened: as §2

Hep-2 = test: Solid tumor cell growth inhibition, MTT, 72 h; format: cell-based, human; conditions: Homo sapiens, HEp-2; 72 h, MTT
Procedure, shortened: as §2

MGC-803 = test: Solid tumor cell growth inhibition, MTT, 72 h; format: cell-based, human; conditions: Homo sapiens, MGC-803; 72 h, MTT
Procedure, shortened: as §2

A549 = test: Solid tumor cell growth inhibition, MTT, 72 h; format: cell-based; conditions: Homo sapiens
Procedure, shortened: as §2

Becap-37 = test: Solid tumor cell growth inhibition, MTT, 72 h; format: cell-based; conditions: Homo sapiens
Procedure, shortened: as §2

CaEs-17 = test: Solid tumor cell growth inhibition, MTT, 72 h; format: cell-based; conditions: Homo sapiens, CaEs17
Procedure, shortened: as §2

Hep G2 = test: Solid tumor cell growth inhibition, MTT, 72 h; format: cell-based; conditions: Homo sapiens, HepG2
Procedure, shortened: as §2

MG-63 = test: Solid tumor cell growth inhibition, MTT, 72 h; format: cell-based; conditions: Homo sapiens
Procedure, shortened: as §2

PANC-1 = test: Solid tumor cell growth inhibition, MTT, 72 h; format: cell-based; conditions: Homo sapiens
Procedure, shortened: as §2

PC-3 = test: Solid tumor cell growth inhibition, MTT, 72 h; format: cell-based; conditions: Homo sapiens
Procedure, shortened: as §2

RKO = test: Solid tumor cell growth inhibition, MTT, 72 h; format: cell-based; conditions: Homo sapiens
Procedure, shortened: as §2

SK-OV-3 = test: Solid tumor cell growth inhibition, MTT, 72 h; format: cell-based; conditions: Homo sapiens, SK-OV-3, 72 h, MTT; for IC50: read-out: IC50 SK-OV-3; for IC90: read-out: IC90 SK-OV-3
Procedure, shortened: as §2

U87-MG = test: Solid tumor cell growth inhibition, MTT, 72 h; format: cell-based; conditions: Homo sapiens, U-87 MG
Procedure, shortened: as §2

Work on `C=C1C(=O)[C@]23[C@H](OC(=O)C4CCN(S(=O)(=O)c5ccccc5[N+](=O)[O-])CC4)[C@H]1CC[C@H]2[C@@]12CO[C@@]3(O)[C@@H](O)[C@@H]1C(C)(C)CCC2=O` [BS-OR-034] yielded an IC50 (K562/ADR) of 1.52 µg/mL (≈ 2.31 µM), an IC90 (K562/ADR) of 4.77 µg/mL (≈ 7.24 µM) and an IC50 (Kasumi-1) of 1.58 µg/mL (≈ 2.4 µM). It also gave an IC90 (Kasumi-1) of 3.46 µg/mL (≈ 5.25 µM), an IC50 (H9) of 0.78 µg/mL (≈ 1.18 µM) and an IC90 (H9) of 1.73 µg/mL (≈ 2.63 µM). It also gave an IC50 (Jurkat) of 1.32 µg/mL (≈ 2 µM), an IC90 (Jurkat) of 5.36 µg/mL (≈ 8.14 µM) and an IC50 (NB4) of 0.5 µg/mL (≈ 0.759 µM). It also gave an IC90 (NB4) of 1.94 µg/mL (≈ 2.95 µM), an IC50 (RPMI 8226) of 1.48 µg/mL (≈ 2.25 µM) and an IC90 (RPMI 8226) of 3.83 µg/mL (≈ 5.81 µM). It also gave an IC50 (CNE) of 3.73 µg/mL (≈ 5.66 µM), an IC90 (CNE) of 10.2 µg/mL (≈ 15.6 µM) and an IC50 (Hela) of 2.98 µg/mL (≈ 4.52 µM). For the same molecule, the IC90 (Hela) was 7.76 µg/mL (≈ 11.8 µM), the IC50 (Hep-2) was 3.97 µg/mL (≈ 6.03 µM) and the IC90 (Hep-2) was 13.3 µg/mL (≈ 20.3 µM). For the same molecule, the IC50 (MGC-803) was 2.89 µg/mL (≈ 4.39 µM), the IC90 (MGC-803) was 8.83 µg/mL (≈ 13.4 µM) and the IC50 (A549) was 6.43 µg/mL (≈ 9.76 µM). It also gave an IC90 (A549) of 11.9 µg/mL (≈ 18.1 µM), an IC50 (Becap-37) of 3.24 µg/mL (≈ 4.92 µM) and an IC90 (Becap-37) of 10.1 µg/mL (≈ 15.4 µM). For the same molecule, the IC50 (CaEs-17) was 3.48 µg/mL (≈ 5.28 µM), the IC90 (CaEs-17) was 11 µg/mL (≈ 16.7 µM) and the IC50 (Hep G2) was 3.81 µg/mL (≈ 5.78 µM). The IC90 (Hep G2) was greater than 16 µg/mL, the IC50 (MG-63) was 1.28 µg/mL (≈ 1.94 µM) and the IC90 (MG-63) was 3.22 µg/mL (≈ 4.89 µM). For the same molecule, the IC50 (PANC-1) was 4.99 µg/mL (≈ 7.58 µM), the IC90 (PANC-1) was 11.9 µg/mL (≈ 18.1 µM) and the IC50 (PC-3) was 3.88 µg/mL (≈ 5.89 µM). It also gave an IC90 (PC-3) of 9.45 µg/mL (≈ 14.3 µM), an IC50 (RKO) of 1.21 µg/mL (≈ 1.84 µM) and an IC90 (RKO) of 1.97 µg/mL (≈ 2.99 µM). It also gave an IC50 (SK-OV-3) of 3.88 µg/mL (≈ 5.89 µM), an IC90 (SK-OV-3) of 9.45 µg/mL (≈ 14.3 µM) and an IC50 (U87-MG) of 2.16 µg/mL (≈ 3.28 µM). The IC90 (U87-MG) was 6.75 µg/mL (≈ 10.2 µM).
`C=C1C(=O)[C@]23[C@H](OC(=O)C4CCN(S(=O)(=O)c5cccc([N+](=O)[O-])c5)CC4)[C@H]1CC[C@H]2[C@@]12CO[C@@]3(O)[C@@H](O)[C@@H]1C(C)(C)CCC2=O` [BS-OR-037] was tested, and the IC50 (K562/ADR) was 1.32 µg/mL (≈ 2 µM), the IC90 (K562/ADR) was 3.6 µg/mL (≈ 5.47 µM) and the IC50 (Kasumi-1) was 1.41 µg/mL (≈ 2.14 µM). For the same molecule, the IC90 (Kasumi-1) was 3.19 µg/mL (≈ 4.84 µM), the IC50 (H9) was 1.64 µg/mL (≈ 2.49 µM) and the IC90 (H9) was 3.46 µg/mL (≈ 5.25 µM). It also gave an IC50 (Jurkat) of 1.16 µg/mL (≈ 1.76 µM), an IC90 (Jurkat) of 4.4 µg/mL (≈ 6.68 µM) and an IC50 (NB4) of 0.35 µg/mL (≈ 0.531 µM). It also gave an IC90 (NB4) of 1.66 µg/mL (≈ 2.52 µM), an IC50 (RPMI 8226) of 1.7 µg/mL (≈ 2.58 µM) and an IC90 (RPMI 8226) of 3.73 µg/mL (≈ 5.66 µM). It also gave an IC50 (CNE) of 2.95 µg/mL (≈ 4.48 µM), an IC90 (CNE) of 8.76 µg/mL (≈ 13.3 µM) and an IC50 (Hela) of 3.41 µg/mL (≈ 5.18 µM). It also gave an IC90 (Hela) of 10.1 µg/mL (≈ 15.3 µM), an IC50 (Hep-2) of 3.58 µg/mL (≈ 5.43 µM) and an IC90 (Hep-2) of 15.3 µg/mL (≈ 23.2 µM). It also gave an IC50 (MGC-803) of 3.18 µg/mL (≈ 4.83 µM), an IC90 (MGC-803) of 6.35 µg/mL (≈ 9.64 µM) and an IC50 (A549) of 5.72 µg/mL (≈ 8.68 µM). The IC90 (A549) was 10.1 µg/mL (≈ 15.4 µM), the IC50 (Becap-37) was 2.75 µg/mL (≈ 4.17 µM) and the IC90 (Becap-37) was 7.47 µg/mL (≈ 11.3 µM). It also gave an IC50 (CaEs-17) of 3.07 µg/mL (≈ 4.66 µM), an IC90 (CaEs-17) of 11.2 µg/mL (≈ 16.9 µM) and an IC50 (Hep G2) of 3.33 µg/mL (≈ 5.06 µM). The IC90 (Hep G2) was greater than 16 µg/mL, the IC50 (MG-63) was 1.2 µg/mL (≈ 1.82 µM) and the IC90 (MG-63) was 3.1 µg/mL (≈ 4.71 µM). The IC50 (PANC-1) was 4.98 µg/mL (≈ 7.56 µM), the IC90 (PANC-1) was 11.1 µg/mL (≈ 16.8 µM) and the IC50 (PC-3) was 3.48 µg/mL (≈ 5.28 µM). The IC90 (PC-3) was 7.08 µg/mL (≈ 10.7 µM), the IC50 (RKO) was 0.91 µg/mL (≈ 1.38 µM) and the IC90 (RKO) was 1.84 µg/mL (≈ 2.79 µM). The IC50 (SK-OV-3) was 3.48 µg/mL (≈ 5.28 µM), the IC90 (SK-OV-3) was 7.08 µg/mL (≈ 10.7 µM) and the IC50 (U87-MG) was 1.86 µg/mL (≈ 2.82 µM). It also gave an IC90 (U87-MG) of 4.68 µg/mL (≈ 7.1 µM).
